Several values for one entry are separate records, joined by “and”; a condition that tells them apart may be missing. Equal values may be shown once. Where a name gives a salt, the structure may show the parent alone. Read-outs that look alike come from different tables or passages of the source.
Columns and labels:
hTA1 [1] = target: T1, hTA1 (Homo sapiens, UniProt Q96RJ0); assay: Screen of 89 aminergic compounds at 10 µM, cAMP accumulation in HEK293T cells; assay type: cell-based;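 further: HEK293T cells co-transfected with hTA1 and GloSensor cAMP reporter, cAMP accumulation detected by luminescence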
T1 construct: expressed in transfected cells; host or cells: HEK293T
T1 sequence (Q96RJ0 1-339): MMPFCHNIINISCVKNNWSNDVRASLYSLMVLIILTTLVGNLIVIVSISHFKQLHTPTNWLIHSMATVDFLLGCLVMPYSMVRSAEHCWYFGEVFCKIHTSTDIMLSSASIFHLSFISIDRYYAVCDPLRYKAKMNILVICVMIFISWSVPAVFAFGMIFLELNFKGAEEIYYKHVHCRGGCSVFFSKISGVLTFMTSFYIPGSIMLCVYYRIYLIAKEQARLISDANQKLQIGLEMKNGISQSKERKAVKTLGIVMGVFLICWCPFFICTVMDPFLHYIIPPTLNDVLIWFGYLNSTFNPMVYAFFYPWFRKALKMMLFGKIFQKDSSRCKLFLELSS

hTA1 [2] = target: T1, hTA1; assay: GloSensor cAMP accumulation assay, concentration response, wild-type hTA1 in transfected HEK293T cells; assay type: cell-based; conditions: log[Compound], replicate wells;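 further: luminescence read after 30 min compound exposure at room temperature in cells preloaded with D-Luciferin, reflecting Gs-driven cAMP rise, efficacy scaled to the maximal β-PEA response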
[3] = quadruplicate values, screen at 10 µM

Row | Compound | Luminescence for Screening Data (hTA1 [1]; [3]) | further results
1 | c1ccc2nc(N3CCNCC3)ccc2c1 [quipazine] |  | increase of signal over DMSO-treated controls (hTA1 activation) (hTA1 [1]; 10 µM of compound, HEK293T, threshold log2-fold change of 2): ≥ 4 fold; Normalized Luminescence Counts for WT hTA1 (hTA1 [2]; M = -5): 4.714 and 4.976 and 5.959; Normalized Luminescence Counts for WT hTA1 (hTA1 [2]; M = -5.522): 3.012 and 2.619 and 2.979; Normalized Luminescence Counts for WT hTA1 (hTA1 [2]; M = -6): 0.6873 and 0.2616 and 0.2944; Normalized Luminescence Counts for WT hTA1 (hTA1 [2]; M = -6.522): 0.06517 and 0.4908 and -0.09854; Normalized Luminescence Counts for WT hTA1 (hTA1 [2]; M = -7): 0.03243 and 0.2289 and -0.5569; Normalized Luminescence Counts for WT hTA1 (hTA1 [2]; M = -7.522): -0.0003118 and -0.1313 and -0.0658; Normalized Luminescence Counts for WT hTA1 (hTA1 [2]; M = -8): 0.2944 and -0.3605 and 0.3598; Normalized Luminescence Counts for WT hTA1 (hTA1 [2]; M = -8.522): -0.1968 and 0.4581 and 0.1307; Normalized Luminescence Counts for WT hTA1 (hTA1 [2]; M = -9): -0.2295 and -0.4587 and -0.5242; Normalized Luminescence Counts for WT hTA1 (hTA1 [2]; M = -9.522): -0.3277 and -0.3605 and -0.6224; Normalized Luminescence Counts for WT hTA1 (hTA1 [2]; M = -10): -0.164 and -0.2622 and 0.3926; Normalized Luminescence Counts for WT hTA1 (hTA1 [2]; M = -10.522): 0.3271 and -1.0153 and 0.3926; Normalized Luminescence Counts for WT hTA1 (hTA1 [2]; M = -11): 0.3598 and 0.06517 and 0.6218; Normalized Luminescence Counts for WT hTA1 (hTA1 [2]; M = -11.522): 0.4581 and -0.3277 and -0.1968; Normalized Luminescence Counts for WT hTA1 (hTA1 [2]; M = -12): -0.164 and 0.06517 and -0.09854; Normalized Luminescence Counts for WT hTA1 (hTA1 [2]; M = -12.522): 0.589 and 1.473 and 0.2944
2 | CCN1CCCC1CNC(=O)c1cc(S(=O)(=O)CC)c(N)cc1OC (stereo not shown) [Amisulpride] | 8 and 6.7 and 8.1 and 7 | 
3 | O=S1(=O)c2cccc3cccc(c23)N1CCCN1CCN(c2ccc(F)cc2)CC1 [Fananserin] | 4.9 and 5 and 4.3 and 5.2 | 
4 | C#CCN(C)Cc1ccccc1 [Pargyline hydrochloride] | 8.3 and 10.1 and 8.8 and 8.5 | 
5 | O=c1c(O)c(-c2ccc(O)c(O)c2)oc2cc(O)cc(O)c12 [Quercetin] | 31.9 and 24.7 and 28.4 and 23.7 | 
6 | CN1CCC(=C2c3ccccc3Sc3ccccc32)CC1 [Pimethixine] | 3.8 and 3.7 | 
7 | COC(=O)[C@H]1[C@H]2C[C@H]3c4[nH]c5ccccc5c4CCN3C[C@H]2CC[C@@H]1O [Rauwolscine hydrochloride] | 6.9 and 7.7 and 6.8 | 
8 | O=c1[nH]c2ccccc2n1C1CCN(CCCC(c2ccc(F)cc2)c2ccc(F)cc2)CC1 [pimozide] | 4.4 and 4.3 and 5 | 
9 | CC(C)c1cc(-c2ccc(F)c3ccccc23)nc(N)n1 [RS 127445] | 10.7 and 5.8 and 6.4 and 7 | 
10 | CNCCC(Oc1ccc(C(F)(F)F)cc1)c1ccccc1 (stereo not shown) [Fluoxetine] | 8.5 and 7.5 and 8.1 and 6.5 | 
11 | CN(C)CCOC1=Cc2ccccc2Sc2ccc(Cl)cc21 [zotepine] | 5.4 and 6.9 and 6.1 and 5.8 | 
12 | COC(=O)[C@H]1[C@H]2C[C@@H]3c4[nH]c5cc(OC)ccc5c4CCN3C[C@H]2C[C@@H](OC(=O)c2cc(OC)c(OC)c(OC)c2)[C@@H]1OC [Reserpine] | 10.3 and 8.2 and 7.3 and 7.1 | 
13 | CC(C)[C@@]1(NC(=O)[C@@H]2C[C@@H]3c4cccc5[nH]cc(c45)C[C@H]3N(C)C2)O[C@@]2(O)[C@@H]3CCCN3C(=O)[C@H](Cc3ccccc3)N2C1=O [Dihydroergocristine mesylate] | 5.9 and 6.4 and 5.1 and 5.2 | 
14 | Cl.N#Cc1ccc(N2CCN(C(=O)COc3ccc4[nH]cc(CCN)c4c3)CC2)cc1 [Donitriptan hydrochloride] | 9.4 and 7.6 and 8.3 and 7.4 | 
15 | O=C(c1ccc(F)cc1)C1CCN(CCn2c(=O)[nH]c3ccccc3c2=O)CC1 [Ketanserin] | 6.8 and 5.5 and 5.4 and 3.9 | 
16 | CN1CCN(c2cccc3c(S(=O)(=O)c4ccccc4)c[nH]c23)CC1 [Ro4368554] | 5.1 and 6 and 4.2 and 4.8 | 
17 | O=[N+]([O-])c1ccc(CSc2ncnc3c2ncn3[C@@H]2O[C@H](CO)[C@@H](O)[C@H]2O)cc1 [NBMPR] | 6.9 and 7.3 and 6.6 | 
18 | Cl.O=C(c1ccc(F)cc1)C1CCN(CCn2c(=S)[nH]c3ccccc3c2=O)CC1 [Altanserin hydrochloride hydra] | 9.1 and 6 and 8.8 and 5.9 | 
19 | CN1CCN(C2=Nc3ccccc3Oc3ccc(Cl)cc32)CC1.O=C(O)CCC(=O)O [Loxapine succinate salt] | 5.2 and 3.9 and 5.6 | 
20 | C=CCc1ccccc1OCC(O)CNC(C)C (stereo not shown) [Alprenolol] | 10.1 and 8.4 and 7.8 and 6.7 | 
21 | C=C[C@H]1C[N@@]2CC[C@H]1C[C@H]2[C@H](O)c1ccnc2ccc(OC)cc12 [Quinine sulfate] | 7.1 and 8 and 6.1 and 7.2 | 
22 | CCN(CC)C(=O)/C(C#N)=C/c1cc(O)c(O)c([N+](=O)[O-])c1 [Entacapone] | 5.5 and 5.2 and 6.2 and 5.6 | 
23 | CN1CCc2ccccc2Cc2[nH]c3ccccc3c2CC1 [LE300] |  | Luminescence for Screening Data (hTA1 [1]): 5.7 and 3.6 and 5.5 and 5
24 | Cc1nn(C)c(C)c1-c1cccc2c1CC[C@H](N(C)C)C2 [AS19] | 9.8 and 9.9 and 8 and 6.8 | 
25 | COc1ccc(S(=O)(=O)Nc2cc(Cl)cc(Cl)c2OC)cc1N1CCNCC1 [SB399885] | 6.4 and 5.8 and 6.1 and 6.2 | 
26 | CNC1(c2ccccc2Cl)CCCCC1=O (stereo not shown) [Ketamine] | 4.7 and 6.1 and 5.5 and 5.6 | 
27 | O=C(CCCCCN1CCN(c2ccccc2-c2ccccc2)CC1)NC1CCCc2ccccc21 (stereo not shown) [LP12] | 5.4 and 4.7 and 7.1 and 5 | 

Row | Compound | Luminescence for Screening Data (hTA1 [1]; [3]) | further results
28 | Cl.O=C1Nc2ccc(Cl)c3c2C1(CCCCN1CC=C(c2ccc(Cl)cc2)CC1)CCC3 (stereo not shown) [DR4485 hydrochloride] | 5.6 and 5.7 and 6.4 and 4.9 | 
29 | COc1ccc(CC2NCCc3c2[nH]c2ccc(C)cc32)c(Cl)c1OC.Cl (stereo not shown) [LY266097 hydrochloride] | 5.6 and 6.8 and 5.3 and 5.9 | 
30 | N.N.[Cl][Pt][Cl] [Cisplatin] | 5.8 and 6.4 and 6.9 and 6.2 | 
31 | N#Cc1c[nH]c2c(C(=O)N3CCN(CCc4ccc(F)cc4)CC3)cccc12 [EMD281014] | 4.2 and 3.9 and 4.4 | 
32 | COc1cc2c(cc1OC)C1CC(=O)C(CC(C)C)CN1CC2 (stereo not shown) [Tetrabenazine] | 6.8 and 8.5 and 6.4 and 8.8 | 
33 | Cl.O=c1[nH]oc2c1CCNC2 [Gaboxadol HCl] | 7 and 8.2 and 5.3 and 6.3 | 
34 | O=C1Cc2cc(CCN3CCN(c4nsc5ccccc45)CC3)c(Cl)cc2N1 [Ziprasidone] | 5.8 and 4.8 and 5.4 | 
35 | CNCCCN1c2ccccc2CCc2ccccc21 [Desipramine] | 6 and 6.2 and 5.6 and 6.1 | 
36 | O=C(CCCN1CCC(O)(c2ccc(Cl)cc2)CC1)c1ccc(F)cc1 [Haloperidol] | 7.4 and 8.8 and 6.8 and 6.9 | 
37 | CNc1ccc2c(CCN)cc(=O)oc2c1 [FFN206] | 12.7 and 12.5 and 12.8 | 
38 | Fc1ccc(C(OCCN2CCN(CCCc3ccccc3)CC2)c2ccc(F)cc2)cc1 [GBR12909] | 4.8 and 5.2 and 6.6 and 6.2 | 
39 | CN(C)c1ccc(/C=C/c2cc[n+](C)cc2)cc1.[I-] [ASP-iodide] | 6.9 and 6.2 and 4.9 and 4.4 | 
40 | Cc1[nH]c2ccc(Cl)cc2c1C1=CCNCC1 [EMD386088] | 14.2 and 14.9 and 14.6 and 13.7 | 
41 | CCCCCCCCCOc1ccc2[nH]cc(CCN)c2c1 [5-nonyloxytryptamine] | 10.6 and 10.3 and 13.3 and 10.2 | 
42 | Cc1nc2sccn2c(=O)c1CCN1CCC(=C(c2ccc(F)cc2)c2ccc(F)cc2)CC1 [Ritanserin] | 5.6 and 5.8 and 6.1 and 6.3 | 
43 | CN1CC2c3ccccc3Oc3ccc(Cl)cc3C2C1 (stereo not shown) [Asenapine maleate] | 139.1 and 129.2 and 126.2 and 110.4 | 
44 | CN1CCC(C(=O)c2cccc(NC(=O)c3c(F)cc(F)cc3F)n2)CC1 [Lasmitidan] | 5.8 and 6.4 and 6.2 and 4.1 | 
45 | CN1C[C@H](C(=O)N[C@]2(C)O[C@@]3(O)[C@@H]4CCCN4C(=O)[C@H](Cc4ccccc4)N3C2=O)C=C2c3cccc4c3c(cn4C)C[C@H]21.O=C(O)/C=C\C(=O)O [Methylergotamine maleate] | 42.5 and 31.9 and 34.9 and 38.8 | 
46 | C=CCN1C[C@H](C(=O)N(CCCN(C)C)C(=O)NCC)C[C@@H]2c3cccc4[nH]cc(c34)C[C@H]21 [Cabergoline] | 7.4 and 6.2 and 7 and 5.7 | 
47 | O=C1CCc2ccc(OCCCCN3CCN(c4cccc(Cl)c4Cl)CC3)cc2N1 [Aripiprazole] | 3.9 and 3.4 and 5.3 and 4.7 | 
48 | N=C(N)NC(=O)c1nc(Cl)c(N)nc1N [Amiloride] | 9.5 and 8.8 and 7 and 8.1 | 
49 | Oc1cc(O)c2c(c1)O[C@H](c1cc(O)c(O)c(O)c1)[C@H](O)C2 [Epigallocatechin] | 5.2 and 5.7 and 5.9 and 6.3 | 
50 | CN/C(=N/CCSCc1nc[nH]c1C)NC#N [Cimetidine] | 8.3 and 6.6 and 8.6 and 5.4 | 
51 | CNS(=O)(=O)Cc1ccc2[nH]cc(CCN(C)C)c2c1 [Sumatriptan] | 6.2 and 7.3 | 
52 | CCCCN1CCC(COC(=O)c2cc(Cl)c(N)c3c2OCCO3)CC1 [SB204070] | 5.4 and 6 and 6.4 | 
53 | CCN(CC)C(=O)[C@@H]1C=C2c3cccc4[nH]c(Br)c(c34)C[C@H]2N(C)C1 [2-Br LSD] | 10.4 and 10.1 and 9.5 and 7.6 | 
54 | O=C1c2ccccc2S(=O)(=O)N1CCCCN1CCN(c2ncccn2)CC1 [Ipsapirone] | 6.8 and 5.5 and 5.4 | 

Source: publication PMC10762035, “Molecular basis of human trace amine-associated receptor 1 activation” (Nature Communications, 2024)
